We go through one compound from article PMC6857671 (Chemical Science, 2019).

The experiment relates to HeLa cells. The experiment in a line: Confocal microscopic analysis of cellular location of DOX and 36. It is filed as cell-based. The note with it: 10 µM, 3 h, 37 °C, fluorescence confocal microscopy.

As for `COc1cccc2c1C(=O)c1c(O)c3c(c(O)c1C2=O)C[C@@](O)(C(=O)CO)C[C@@H]3O[C@H]1C[C@H](N)[C@H](O)[C@H](C)O1` [DOX, Doxorubicin], the “cellular location of DOX fluorescence, no irradiation” value is listed as “efficiently transported to the nucleus”.
